Source: PMC12365235, “Molecular mechanisms of thiazide-like diuretics-mediated inhibition of the human Na-Cl cotransporter” (Nature Communications, 2025)

Target: T1, hNCC(C472F) (Homo sapiens, UniProt P55017, C472F)
T1 construct: expressed in transfected cells
T1 sequence (P55017 1-1021 C472F): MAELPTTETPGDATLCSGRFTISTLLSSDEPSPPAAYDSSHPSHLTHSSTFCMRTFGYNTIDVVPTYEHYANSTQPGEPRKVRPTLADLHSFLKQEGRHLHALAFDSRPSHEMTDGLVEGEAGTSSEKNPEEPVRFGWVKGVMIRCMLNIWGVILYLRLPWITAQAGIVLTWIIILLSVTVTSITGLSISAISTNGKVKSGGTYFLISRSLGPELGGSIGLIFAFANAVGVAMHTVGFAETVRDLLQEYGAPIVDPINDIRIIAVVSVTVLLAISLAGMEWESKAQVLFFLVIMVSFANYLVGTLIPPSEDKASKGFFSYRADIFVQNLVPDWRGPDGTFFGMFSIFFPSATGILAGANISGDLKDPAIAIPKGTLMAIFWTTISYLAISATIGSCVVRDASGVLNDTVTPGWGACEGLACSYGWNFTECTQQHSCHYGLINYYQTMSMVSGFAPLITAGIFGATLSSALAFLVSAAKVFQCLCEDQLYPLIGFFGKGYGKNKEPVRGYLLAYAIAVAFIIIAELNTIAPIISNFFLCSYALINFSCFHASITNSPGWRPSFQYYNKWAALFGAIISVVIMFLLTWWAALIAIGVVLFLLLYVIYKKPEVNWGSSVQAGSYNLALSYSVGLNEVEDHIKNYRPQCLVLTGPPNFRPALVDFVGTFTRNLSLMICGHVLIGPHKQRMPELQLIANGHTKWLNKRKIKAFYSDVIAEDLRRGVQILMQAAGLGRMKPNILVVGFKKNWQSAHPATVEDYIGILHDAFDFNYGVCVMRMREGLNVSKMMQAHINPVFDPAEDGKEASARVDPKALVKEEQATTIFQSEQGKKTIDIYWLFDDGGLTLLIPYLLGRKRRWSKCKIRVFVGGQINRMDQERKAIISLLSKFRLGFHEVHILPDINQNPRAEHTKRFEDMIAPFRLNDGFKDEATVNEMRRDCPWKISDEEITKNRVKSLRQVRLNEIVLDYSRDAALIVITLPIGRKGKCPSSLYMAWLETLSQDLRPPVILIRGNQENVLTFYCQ
Test: 125I- uptake assay, hNCC(C472F) variant
Type: cell-based
Method: HEK293S cell lines, cultured in 293 Freestyle medium (Life Technologies; plus 10% fetal bovine serum), stably expressing hNCC and its variants were generated following published protocols. Cells were transfected using Lipofectamine 3000 (Invitrogen) with a pSBbi-RP-based plasmid containing hNCC or its variants and the SB100X vector. Puromycin (2 μg/mL; Gemini Bio-Products) was used for selection of stable cell lines.
To prepare for the uptake experiment, cells were plated at 0.5 × 10^6 cells/well in 24-well plates one day in advance. To activate NCC, cells were treated with a chloride-free hypotonic solution composed of 67.5 mM sodium-, 2.5 mM potassium-, 0.25 mM magnesium-, and 0.25 mM calcium-gluconate, as well as 7.5 mM HEPES pH 7.4 (buffered using Tris) at 37 °C for 10 min[72]. After the activation step, the experiments were carried out at room temperature. Ten minutes before the start of ^125I^− uptake, 70 μM Bumetanide (Thermo Scientific Chemicals) and 100 μM 4,4′-diisothiocyanatostilbene-2,2′-disulfonic acid (DIDS; Sigma) were added to suppress background iodide uptake activity. Indicated thiazide diuretics were also added to the indicated concentrations 10 min before the start of ^125I^− uptake. The original buffer was switched to an uptake buffer composed of 135 mM Na-gluconate, 5 mM K-gluconate, 1 mM Mg-gluconate, 1 mM Ca-gluconate, 70 μM bumetanide, 100 μM DIDS, 1 mM NaI, 0.25 μCi/ml Na^125I (American Radiolabeled Chemicals, Inc.), and 15 mM HEPES pH 7.4 (buffered using Tris), in the presence or absence of thiazide diuretics to initiate ^125I^− uptake. The ^125I^− uptake process lasted 1 h and was stopped by two rapid washes using ice-cold 110 mM MgCl2. Cells lysed using 1% sodium dodecyl sulfate (SDS) were analyzed by scintillation counting.

Compound: CN1C(CSCC(F)(F)F)Nc2cc(Cl)c(S(N)(=O)=O)cc2S1(=O)=O (stereo not drawn) [polythiazide]
- inhibition at 100 µM (100 μM polythiazide, C472F, read-out: inhibition of transport activity): ~50%
- decrease in potency relative to hNCC(WT) (C472F substitution): approximately 200,000 fold
- IC50 (C472F substitution, estimated from ~50% inhibition at 100 μM): ~100 µM
